Results as given in patent US5262417A, “Antibacterial quinolone compounds” (The Upjohn Company, priority 1991, dated 1993).

Key:
Test in all cases: Dip disk (disk-diffusion) assay, disks loaded with 0.05 ml
Assay type in all cases: cell-based
[1] = tested on: Escherichia coli UC 51 (EC); settings: Escherichia coli, UC51, 0.05 ml per disk, read-out: Growth Inhibition zone, EC; for zone of inhibition at 0.1 µg/mL: 0.1 mcg/ml
Method: (§1) The effectiveness of the subject compounds on bacteria were obtained by performing a dip disk assay. The antibacterial activity of the compounds was determined by the disk-diffusion method. Paper disks (12.7 mm) were loaded with 0.05 ml of drug solution prepared at a concentration of 0.1 mcg/ml; the disks were allowed to air dry. They were then applied to the surface of microorganism-seeded agar assay trays, which contained the bacterial strain Pseudomonas aeruginosa UC 95 (PA), Escherichia coli UC 51 (EC), Klebsiella pneumoniae UC 57 (KP), or Staphylococcus aureus UC 80 (SA). The assay trays were incubated overnight under aerobic condition to allow for the growth of the organisms. Zones of growth inhibition due to the action of the antibiotic were then measured to the nearest millimeter.
(§2) The effectiveness of additional compounds 5-9, (5-7 are Formula IAa compounds and 8 and 9 are Formula IAb compounds) on bacteria were obtained by performing a dip disk assay as described above. The antibacterial activity of the compounds was determined by the disk-diffusion method where the disks were loaded with 0.05 ml of drug solution prepared at a concentration of 1.0 mcg/ml; the disks were allowed to air dry.

[2] = tested on: Pseudomonas aeruginosa UC 95 (PA); settings: Pseudomonas aeruginosa, UC95, 0.05 ml per disk, read-out: Growth Inhibition zone, PA; for zone of inhibition at 0.1 µg/mL: 0.1 mcg/ml
Method: as §1, §2

[3] = tested on: Staphylococcus aureus UC 80 (SA); settings: Staphylococcus aureus, UC80, 0.05 ml per disk, read-out: Growth Inhibition zone, SA; for zone of inhibition at 0.1 µg/mL: 0.1 mcg/ml
Method: as §1, §2

[4] = tested on: Klebsiella pneumoniae UC 57 (KP); settings: Klebsiella pneumoniae, UC57, 0.05 ml per disk, read-out: Growth Inhibition zone, KP; for zone of inhibition at 0.1 µg/mL: 0.1 mcg/ml
Method: as §1, with “Paper disks (12.7 mm) were loaded with 0.05 ml of drug solution prepared at a concentration of 0.1 mcg/ml; the disks were allowed to air dry.” left out, “millimeter. […]” for “millimeter.”

SMILES	zone of inhibition at 0.1 µg/mL [1] [mm]	zone of inhibition at 0.1 µg/mL [2] [mm]	zone of inhibition at 0.1 µg/mL [3] [mm]	zone of inhibition at 0.1 µg/mL [4] [mm]	zone of inhibition at 1 µg/mL ([1]; 1.0 mcg/ml) [mm]	zone of inhibition at 1 µg/mL ([2]; 1.0 mcg/ml) [mm]	zone of inhibition at 1 µg/mL ([3]; 1.0 mcg/ml) [mm]	zone of inhibition at 1 µg/mL ([4]; 1.0 mcg/ml) [mm]
COC(=O)C=C(C(=O)OC)N1CCN(c2cc3c(cc2F)c(=O)c(C(=O)O)cn3C2CC2)CC1 [Compound 3, 2-[4-(1-Cyclopropyl-3-carboxy-6-fluoro-1,4-dihydro-4-oxo-7-quinolinyl)-1-piperazinyl]2-butenedioic acid, dimethyl ester]	29	36	25	29				
COC(=O)C/C=C(\C(=O)OC)N1CCN(c2c(F)cc3c(=O)c(C(=O)O)cn(C4CC4)c3c2F)CC1 [Compound 4, 2-[4-(3-carboxy-1-cyclopropyl-6,8-difluoro-1,4-dihydro-4-oxo-4-oxo-7-quinolinyl)-1-piperazineyl]-2-pentenedioic acid-(E)-1,5-dimethyl ester]	27	33	28	33				
COC(=O)/C=C(\C(=O)OC)N1CCN(c2c(F)c(N)c3c(=O)c(C(=O)O)cn(C4CC4)c3c2F)CC1 [Compound 5, 2-[4-(5-amino-3-carboxy-1-cyclopropyl-6,8-difluoro-1,4-dihydro-4-oxo-7-quinolinyl)-1-piperazinyl]-2-butenedioic acid, (E)-1,4-dimethyl ester]					24	27	27	28
